# From patent publication US12522827B2 (priority 2021, dated 2026)
# l = locked nucleic acid (LNA); d = 2'-deoxy (DNA)
# Key:
# PR8 (H1N1) virus = format: cell-based, Influenza A/PR/8/34 (PR8) H1N1 virus
# [1] = test system: A/Hong Kong/8/68 (HK68) (H3N2) virus; format: cell-based, Influenza A/Hong Kong/8/68 (HK68) H3N2 virus
# wild-type PR8 virus = test system: wild-type PR8 virus; set-up: species or system Balb/C female mice; conditions: mouse, in vivo
substance,measurement,setting,value
"AGAcagcgaccaaAAG (AGACAGCGACCAAAAG; antisense; sugars from the 5' end l3 d10 l3, backbone and methylation of C not given here) [LNA8a]",drop in viral production (antiviral activity),PR8 (H1N1) virus,up to 3 logs
same,drop in viral production (antiviral activity),[1],up to 3 logs
"AccAaaAGaaT (ACCAAAAGAAT; antisense; sugars from the 5' end lddlddllddl, backbone and methylation of C not given here) [LNA1]",effect on viral titer / viral production,PR8 (H1N1) virus,little to no effect
same,effect on viral titer / viral production,[1],little to no effect
CATACTTA [LNA5],effect on viral titer / viral production,PR8 (H1N1) virus,failed to inhibit viral production
same,effect on viral titer / viral production,[1],failed to inhibit viral production
CCAAAAGA [LNA4],effect on viral titer / viral production,PR8 (H1N1) virus,little to no effect
same,effect on viral titer / viral production,[1],little to no effect
"CagaCaCGaCCaaAA (CAGACACGACCAAAA; antisense; sugars from the 5' end ldddldlldllddll, backbone and methylation of C not given here) [LNA6]",titer deficits,PR8 (H1N1) virus,greater than 2 log10
TACTtactgacaGCC [LNA9],"antiviral response, cells pre-treated",PR8 (H1N1) virus,greater than 4 logs
same,drop in viral production (antiviral activity),PR8 (H1N1) virus,~5 logs
same,"suppression of viral titer, post-infection treatment",PR8 (H1N1) virus,greater than 3 logs
same,viral inhibition at the lowest dilution,PR8 (H1N1) virus,greater than 2 logs
same,drop in viral production (antiviral activity),[1],~4 logs
same,clinical signs of disease,wild-type PR8 virus,little-to-no clinical signs of disease
same,protection from fatal influenza disease (survival),wild-type PR8 virus,completely protected
same,recovery of weight,wild-type PR8 virus,fully recovered to pre-infection weight
same,weight loss,wild-type PR8 virus,minimal weight loss
"TagCAtActtA (TAGCATACTTA; antisense; sugars from the 5' end lddlldldddl, backbone and methylation of C not given here) [LNA3]",effect on viral titer / viral production,PR8 (H1N1) virus,failed to inhibit viral production
same,effect on viral titer / viral production,[1],failed to inhibit viral production
